How the values were obtained:
[1] = system: CCRF-CEM cells; experiment: Competition of cold 2F-AraG with 8-[3H]-AraG uptake, CCRF-CEM; format: cell-based; settings: increasing 2F-AraG 1-100 µM, 60 or 120 minutes
Procedure: FIG. 2.3A illustrates a graph of 5 × 10^5CCRF-CEM cells were incubated, in triplicate, with 1uCi 8H^3-AraG (1mCi/ml) and increasing amounts of cold 2F-AraG or DMSO for either 60 or 120 minutes. Percent of control uptake was calculated as: measured cpm of sample/ cpm accumulated 1uCi 8[H^3]-AraG control x 100.
Previously we successfully synthesized a novel ^18F derivative of 2-deoxyguanosine analog, 9-β-D-arabinofuranosylguanine (“^18F-AraG” or “[^18F]F—AraG)”, to use as a molecular probe (FIG. 2.1). [^18F]AraG cell uptake was evaluated in leukemia cell line, CCRF-CEM, and was compared with [^3H]AraG cell uptake. […] To determine whether cold derivative 2F-AraG competes with the uptake of 8-[^3H]—AraG, we studied the [^3H]-Arag uptakes by CCRF-CEM, MOLT-4 (Leukemia cell line) and Raji (human Burkitt’s lymphoma cell line) and competition with cold 2F-AraG (FIGS. 2.3A and 2.3B). […] Competition assays indicate that cold derivative 2F-Arag competes with the uptake of the 8-[^3H]—AraG, indicating similar uptake pathways.

[2] = some patients; cited from earlier work
[3] = system: heart; settings: cited from earlier work
[4] = biological target: T1, deoxyguanosine kinase (dGK) (Homo sapiens, UniProt Q16854); experiment: Enzyme kinetics of dGK; format: biochemical; settings: dGuo positive control, unit not given
T1 sequence (Q16854 40-277): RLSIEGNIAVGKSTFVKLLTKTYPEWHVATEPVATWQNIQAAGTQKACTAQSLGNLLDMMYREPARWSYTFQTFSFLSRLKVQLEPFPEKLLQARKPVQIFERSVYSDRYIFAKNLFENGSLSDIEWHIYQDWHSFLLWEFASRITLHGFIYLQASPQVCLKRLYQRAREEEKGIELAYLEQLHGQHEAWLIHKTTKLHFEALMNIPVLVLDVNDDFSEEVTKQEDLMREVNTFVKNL
From the text: […]. Lines indicate best fit. […]. Lines indicate best fit. […].

[5] = system: colon cancer model; format: in vivo, mice; settings: tumors and tumor draining lymph nodes
From the text: FIGS. 13A-13D show data from embodiments of the invention. FIG. 13A. […] FIG. 13B. […] White circles indicate tumor draining lymph nodes, yellow arrows point to tumors. FIG. 13C.
The discovery of the immune response that results from chemotherapy-induced tumor cell death, termed immunogenic cell death (32), has sparked interest in harnessing chemotherapy’s immunomodulatory effects for possible synergistic combinations with immunotherapeutics (33,34).

[6] = substrate: Nc1nc2c(ncn2[C@H]2C[C@H](O)[C@@H](CO)O2)c(=O)[nH]1; experiment: purified protein, by the assay type; settings: other: dGuo positive control, unit inferred

Molecule: Nc1nc2c(ncn2[C@@H]2O[C@H](CO)[C@@H](O)[C@@H]2F)c(=O)[nH]1 [2F-AraG, 2′-Deoxy-2′-fluoro-9-β-D-arabinofuranosylguanine]
- Effect on [3H]-AraG uptake [1]: decrease

Molecule: Nc1nc2c(ncn2[C@@H]2O[C@H](CO)[C@@H](O)[C@@H]2O)c(=O)[nH]1 [AraG, 9-(β—D—Arabinofuranosyl)guanine]
- Therapeutic serum level at which neurotoxic side effects are reported [2]: ~ 150 µM

Molecule: CC(C)Oc1cccc(C=NCC(C)(C)CNCCNCC(C)(C)CN=Cc2cccc(OC(C)C)c2[O-])c1[O-].[68Ga+3].[I-] [^68Ga-Galmydar]
- Cardiac uptake of tracer in doxorubicin treated animals ([3]; preclinical studies): reduction in cardiac uptake

Molecule: Nc1nc2c(ncn2[C@H]2C[C@H](O)[C@@H](CO)O2)c(=O)[nH]1 [dGuo, 2′-deoxyguanosine]
- Vmax of dGK [4]: 123.2

Molecule: COc1cccc2c1C(=O)c1c(O)c3c(c(O)c1C2=O)C[C@@](O)(C(=O)CO)C[C@@H]3O[C@H]1C[C@H](N)[C@H](O)[C@H](C)O1 [doxorubicin]
- Effect of treatment on 18FDG uptake in the heart ([3]; in vivo): increase

Molecule: Paclitaxel/carboplatin
- Change in [18F]F-AraG signal intensity after treatment [5]: did not lead to appreciable changes

B1: deoxyguanosine kinase (dGK) (Homo sapiens) (protein)
chain: RLSIEGNIAVGKSTFVKLLTKTYPEWHVATEPVATWQNIQAAGTQKACTAQSLGNLLDMMYREPARWSYTFQTFSFLSRLKVQLEPFPEKLLQARKPVQIFERSVYSDRYIFAKNLFENGSLSDIEWHIYQDWHSFLLWEFASRITLHGFIYLQASPQVCLKRLYQRAREEEKGIELAYLEQLHGQHEAWLIHKTTKLHFEALMNIPVLVLDVNDDFSEEVTKQEDLMREVNTFVKNL
- Km [6]: 5.08 µM

From US20230309833A1, “METHODS AND MATERIALS FOR USING [18F]-F-ARAG IN CARDIAC IMAGING” (CELLSIGHT TECHNOLOGIES INC., priority 2020, published 2023)
